{"source": "patent US20240269104A1", "about": "“METHOD FOR TREATING PARKINSON'S DISEASE” (Olatec Therapeutics, Inc., priority 2021, published 2024)", "key": {"α-synuclein": {"test_system": "α-synuclein", "assay": "α-synuclein Western blot in the ventral midbrain after MPTP-subacute administration", "format": "in vivo, mice", "details": "200 mg/kg for 6 days, 24 hours after last MPTP injection", "procedure": "MPTP (Sigma-Aldrich, St. Louis, MO) can be administered at two dose regimens: acute and sub-acute. For the acute regimen, MPTP was administered intraperitoneally (i.p.) four times in one day. Administrations were performed every two hours over an eight-hour period. For the subacute regimen, mice received a single i.p. administration of MPTP per day for five consecutive days. A 20 mg/kg free-base MPTP dose was used for every dose in both models. Sterile saline was used as the vehicle. Control mice were injected with saline solution using the same administration protocol and were defined as sham. Mice were sacrificed at different days after the first injection of MPTP. We used the acute protocol in C56BL/J mice to study dopamine neurodegeneration, inflammation, and motor deficits, whereas the subacute model was used to evaluate α-synuclein aggregation in the following examples.\nSince MPTP promotes α-synuclein aggregation after subacute regimen, we evaluated the effect of dapansutrile on the levels of this protein. 24 hours after the last injection of MPTP, mice were sacrificed. The VM was excised, and proteins were resolved as described in Example 9. VM was selected as the region to evaluate α-synuclein accumulation according to previous publications. […] The levels of α-synuclein were determined by Western blot. […]"}, "IL-1α": {"test_system": "IL-1α", "assay": "IL-1α in LPS-stimulated cultured splenocytes from MPTP-injected mice", "format": "in vivo", "details": "mice treated 200 mg/kg for seven days; splenocytes cultured with LPS, cell lysate", "procedure": "(§1) Seven days after MPTP-acute administration, peripheral blood and spleen were isolated from each mouse, and hematological changes in the peripheral blood and cytokine production in the spleen were evaluated. […] White blood cells, lymphocytes, monocytes, and granulocytes were measured from the peripheral blood using a HemaTrue cell counter (Heska, Loveland, CO). Spleens were isolated and mechanically passed through a 70 μm cell strainer (ThermoFisher) in PBS. Cells were plated in a 96-well plate at a concentration of 200,000 cells/well in RPMI medium (Coring, New York, NY) with 10% FBS. After that, cells were stimulated with LPS at 1 μg/ml and 5 μg/ml. RPMI medium was used as control. After 72 hours, supernatant was isolated to measure the levels of IL-6. Cells were lysed with RIPA buffer (ThermoFisher) supplemented with protease inhibitor (ThermoFisher) to measure IL-1α levels. In both cases, 5-6 mice per group were used."}, "[1]": {"test_system": "white blood cells, lymphocytes, monocytes, and granulocytes", "assay": "peripheral blood cell counts after MPTP-acute administration", "format": "in vivo, mice", "details": "200 mg/kg, day seven after MPTP-acute", "procedure": "as §1"}, "IL-17A": {"test_system": "IL-17A", "assay": "IL-17A in brain homogenates by ELISA after MPTP", "format": "in vivo, mice", "details": "200 mg/kg once each day; seven days after MPTP-acute; MPTP+saline 58 pg/μg", "source_text": "(§2) It has been reported that administration of MPTP induces the assembly of NLPR3 inflammasome in the brain. Mice were sacrificed after anesthesia by cervical dislocation at 4 and 7 days after MPTP administration. Brains were collected, and the striatum (St) and ventral midbrain (VM) areas of both hemispheres were excised and frozen in liquid nitrogen. Samples were homogenized in RIPA buffer (Thermo Fisher, Waltham, MA) supplemented with protease inhibitor (Thermo Fisher) using a TissueRuptor (Qiagen, Germantown, MD). Protein concentration was determined using a BCA Protein Assay Kit (Thermo Fisher) according to manufacturer's instructions. Samples were diluted to 2 mg/ml in the same extraction buffer.\n(§3) Levels of IL-1β, IL-18, IL-6, and IL-17A from brain homogenates were measured by ELISA DuoSet kit (R&D Systems, Minneapolis, MN). ELISA kit for IL-1β detects 92-95% of the 17 kDa form and only 8-5% of the precursor form of this cytokine. 96-well plates (ThermoFisher Scientific) were coated with capture antibody. Samples were incubated for two hours at room temperature. Detection antibodies and streptavidin-HRP were added. TMB ELISA (cBioscience, San Diego, CA) was used as substrate solution. Results were measured in a microplate reader (Bio-Tek, Santa Clara, CA). Final values were normalized by the protein concentration of each sample. 4-5 mice per group were used for each cytokine."}, "dopaminergic neurons": {"test_system": "dopaminergic neurons", "assay": "tyrosine hydroxylase (TH) immunostaining of the nigrostriatal pathway after MPTP", "format": "in vivo, mice", "details": "200 mg/kg for 7 days; seven days after MPTP-acute", "procedure": "To evaluate the effect of dapansutrile on dopaminergic neurons, mice were subjected to MPTP acute administration. Seven days after, when the levels of dopaminergic neurons are lower, the nigrostriatal pathway was evaluated by tyrosine hydroxylase (TH) immunostaining to assess the viability of dopaminergic neurons. Mice were perfused with 4% paraformaldehyde (Sigma-Aldrich) in PBS. Brains were removed and immersed in the same perfusion buffer overnight and then cryoprotected with 30% sucrose in 0.1M PBS at 4° C. After dehydration, samples were embedded in paraffin molds for sectioning. Coronal brain sections (4 μm thick) containing the St and SNpc were obtained and transferred to glass microscope slides. After antigen retrieval, slides were incubated with primary anti-TH antibody (1:2000, Abcam, Cambridge, UK) for 30 minutes at room temperature. TH antibody binding was detected using an anti-rabbit HRP-conjugated secondary polymer, followed by chromogenic visualization with diaminobenzidine (DAB, Cell Signaling). Hematoxylin counterstain was used to visualize nuclei. Processing of the samples was performed by Inotiv Boulder (Boulder, CO). Dopaminergic immunoreactivity in the St was calculated by measuring the integrated density by NIH ImageJ software. Stereological counting in the SNpc was performed by manual quantification of TH-positive neurons. Three sections per mice were used. Five mice were used for the sham+saline group, and seven mice were used for the MPTP group."}, "IL-6": {"test_system": "IL-6", "assay": "IL-6 in LPS-stimulated cultured splenocytes from MPTP-injected mice", "format": "in vivo", "details": "mice treated 200 mg/kg for seven days; splenocytes cultured with LPS, supernatant", "procedure": "as §1"}, "IL-18": {"test_system": "IL-18", "assay": "IL-18 in brain homogenates by ELISA after MPTP", "format": "in vivo, mice", "procedure": "Mice were treated with dapansutrile or saline and injected with MPTP as described in Example 2.\nAt three days after MPTP, mice were sacrificed and levels of IL-18 in the brain were measured. Briefly, the brain was removed from the mouse and a piece of the striatum was homogenized. Levels of proteins were normalized to 2 mg/ml and IL-18 was measured using the mouse IL-18 ELISA from R and D Systems.\nas §2, §3"}, "[2]": {"details": "200 mg/kg once each day, four days after MPTP-acute"}}}
{"smiles": "CS(=O)(=O)CCC#N", "note": "[dapansutrile, 3-methanesulfonylpropionitrile]", "values": [{"measurement": "levels of monomeric form of α-synuclein (17 kDa) in the ventral midbrain", "setting": "α-synuclein", "result": "significantly reduced"}, {"measurement": "levels of oligomeric forms of α-synuclein (150-30 kDa) in the ventral midbrain", "setting": "α-synuclein", "result": "significantly reduced"}, {"measurement": "reduction of the level of intracellular IL-1α in splenocytes", "setting": "IL-1α", "result": 40, "unit": "%"}, {"measurement": "increase in number of circulating granulocytes", "setting": "[1]", "result": 33, "unit": "%"}, {"measurement": "increase in number of circulating lymphocytes", "setting": "[1]", "result": 24, "unit": "%"}, {"measurement": "levels of IL-17A in the ventral midbrain (VM) after treatment", "setting": "IL-17A", "result": 46, "unit": "pg/µg"}, {"measurement": "TH-positive fibers and neurons versus control mice", "setting": "dopaminergic neurons", "result": "no significant changes against control mice were observed"}, {"measurement": "density of TH-positive fibers in the striatum versus MPTP mice treated with saline", "setting": "dopaminergic neurons", "result": "increase"}, {"measurement": "increase of TH-positive neurons in the SNpc", "setting": "dopaminergic neurons", "result": 3, "unit": "times"}, {"measurement": "IL-6 production by splenocytes", "setting": "IL-6", "result": "restoring the effects of MPTP"}, {"measurement": "levels of IL-18 in the ventral midbrain (VM)", "setting": "IL-18; [2]", "result": "no changes associated to dapansutrile"}, {"measurement": "reduction in the levels of IL-18 in the striatum (St) versus MPTP mice treated with saline", "setting": "IL-18; [2]", "result": 15, "unit": "%"}, {"measurement": "levels of IL-18 in the brain in comparison with mice treated with water", "setting": "IL-18; 200 mg/kg oral gavage, striatum, three days after MPTP", "result": "reduced the levels of IL-18 in the brain"}]}
